Molecules are shown by their SMILES.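 Five compound concentrations were applied to cells in 96-well plates for 48 hours; endpoints were derived by simple linear interpolation of the resulting dose-response curve. TGI is the concentration that stops growth completely.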

This test concerns P388/ADR leukemia. Briefly: NCI tumour cell line growth inhibition, 48 h.

Regarding `CCCCS(=N)(=O)CC[C@H](N)C(=O)O` (stereo partly specified), the TGI was > 5 mM.

(Values after PubChem BioAssay (NCI).)
